According to patent publication US10688200B2, “Urea-based prostate specific membrane antigen (PSMA) inhibitors for imaging and therapy” (Five Eleven Pharma Inc., priority 2015, dated 2020):

Assays:
PSMA [1] = molecular target: T1, PSMA (Homo sapiens, UniProt Q04609); assay: In vitro binding signals of 68Ga labeled ligands in LNCaP tumor homogenates; details: Ga-68 radiolabeled ligands; for Total binding (TB): 37° C. 60 min; for Nonspecific binding (NSB): with 1a (PSMA11) 10 μM
T1 construct: 100 μL of freshly harvested PSMA cells; endogenous in cells; host or cells: 'PSMA cells' in the method
T1 sequence (Q04609 whole entry): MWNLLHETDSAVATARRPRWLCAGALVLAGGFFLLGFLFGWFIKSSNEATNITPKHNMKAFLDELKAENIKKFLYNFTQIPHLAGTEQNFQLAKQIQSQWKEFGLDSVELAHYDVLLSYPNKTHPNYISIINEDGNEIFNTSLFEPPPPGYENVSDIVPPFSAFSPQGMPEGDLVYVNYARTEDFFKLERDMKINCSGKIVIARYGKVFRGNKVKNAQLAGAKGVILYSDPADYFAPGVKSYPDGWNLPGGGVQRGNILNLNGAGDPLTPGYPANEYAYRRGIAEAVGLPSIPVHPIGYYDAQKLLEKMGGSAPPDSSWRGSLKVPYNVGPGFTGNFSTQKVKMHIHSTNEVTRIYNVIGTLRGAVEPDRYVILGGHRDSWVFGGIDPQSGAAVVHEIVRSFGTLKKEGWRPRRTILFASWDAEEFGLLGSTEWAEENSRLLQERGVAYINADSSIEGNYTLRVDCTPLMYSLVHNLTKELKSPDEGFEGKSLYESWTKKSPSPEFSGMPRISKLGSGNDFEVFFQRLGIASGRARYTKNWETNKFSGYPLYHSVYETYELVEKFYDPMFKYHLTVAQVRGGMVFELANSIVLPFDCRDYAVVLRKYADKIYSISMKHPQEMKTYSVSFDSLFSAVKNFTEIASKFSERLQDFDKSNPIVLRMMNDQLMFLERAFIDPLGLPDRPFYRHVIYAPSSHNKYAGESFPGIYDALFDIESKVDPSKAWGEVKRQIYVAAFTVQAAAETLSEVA

PSMA [2] = molecular target: T1, PSMA; assay: In vitro competitive binding assay to determine IC50 to PSMA; details: LNCaP cells, [125I]MIP-1095 radioligand, 37° C. 1 h, mean±SD (n=4); read-out: PSMA binding affinities of cold ligands, IC50
Experimental: In Vitro Competitive Binding Assay to Determine IC50 to PSMA
In order to determine the binding affinity, in vitro competitive binding assays were performed. The LNCaP cells were incubated with 150,000 cpm of [^125I]MIP-1095 in the presence of 10 different concentrations of competing drugs. After incubation at 37° C. for 1 h, the bound and free radioactivity were separated by vacuum filtration through GF/B filter paper using a Brandel M-24R cell harvester followed by washing twice. Non-specific binding was defined with 10 μM PMPA. The cell bound radioactivity was measured with a gamma counter, 2470 Wizard^2 (Perkin-Elmer, IL). The IC50 values were calculated by fitting the data using a nonlinear regression algorithm (GraphPad Software).
The PSMA binding affinities were determined in a competitive binding assay using LNCaP human prostate carcinoma cells and the known high affinity PSMA ligand, [^125I]MIP-1095 as the radioligand. Data are expressed as mean±SD (n=4).

Compound | Specific binding (SB) SB = TB − NSB (PSMA [1]) | Total binding (TB) (PSMA [1]) | Nonspecific binding (NSB) (PSMA [1]) | IC50 (PSMA [2]) [nM]
O=C(O)CC[C@H](NC(=O)N[C@@H](CCCCNC(=O)[C@H](Cc1ccccc1)NC(=O)COc1ccc(C[C@H](NC(=O)CNC(=O)CN2CCN(CC(=O)O)CCN(CC(=O)O)CCN(CC(=O)O)CC2)C(=O)O)cc1)C(=O)O)C(=O)O [Compound 5a, (4S,11S,15S)-4-Benzyl-1-(4-((S)-2-carboxy-2-(2-(2-(4,7,10-tris(carboxymethyl)-1,4,7,10-tetraazacyclododecan-1-yl)acetamido)acetamido)ethyl)phenoxy)-2,5,13-trioxo-3,6,12,14-tetraazaheptadecane-11,15,17-tricarboxylic acid.] | 2.83 | 3.30 | 0.47 | 36.1 ± 18.1
O=C(O)CCc1ccc(O)c(CN(CCN(CC(=O)O)Cc2nc(CCC(=O)NCCCCCC(=O)NCCCC[C@H](NC(=O)N[C@@H](CCC(=O)O)C(=O)O)C(=O)O)ccc2O)CC(=O)O)c1 [Compound 4b, (3S,7S)-22-(6-(((2-((5-(2-Carboxyethyl)-2-hydroxybenzyl)(carboxymethyl)amino)ethyl) (carboxymethyl)amino)methyl)-5-hydroxypyridin-2-yl)-5,13,20-trioxo-4,6,12,19-tetraazadocosane-1,3,7-tricarboxylic acid] | 8.8 | 10.3 | 1.5 | 40.5 ± 20.5
O=C(O)CC[C@H](NC(=O)N[C@@H](CCCCNC(=O)CCCCCNC(=O)CCc1ccc(O)c(CN(CCN(CC(=O)O)Cc2nc(CCC(=O)NCCCCCC(=O)NCCCC[C@H](NC(=O)N[C@@H](CCC(=O)O)C(=O)O)C(=O)O)ccc2O)CC(=O)O)n1)C(=O)O)C(=O)O [Compound 3, (3S,3′S,7S,7′S)-22,22′-(6,6′-((Ethane-1,2-diylbis((carboxymethyl)azanediyl))bis(methylene))bis(5-hydroxypyridine-6,2-diyl))bis(5,13,20-trioxo-4,6,12,19-tetraazadocosane-1,3,7-tricarboxylic acid)] | 5.8 | 10.0 | 4.2 | 132 ± 11
O=C(O)CCc1ccc(O)c(CN(CCN(CC(=O)O)Cc2nc(CCC(=O)NCCCCCC(=O)NCCCC[C@H](NC(=O)N[C@@H](CCC(=O)O)C(=O)O)C(=O)O)ccc2O)CC(=O)O)n1 [Compound 2, (3S,7S)-22-(6-(((2-(((6-(2-Carboxyethyl)-3-hydroxypyridin-2-yl)methyl) (carboxymethyl)amino)ethyl)(carboxymethyl)amino)methyl)-5-hydroxypyridin-2-yl)-5,13,20-trioxo-4,6,12,19-tetraazadocosane-1,3,7-tricarboxylic acid] | 4.1 | 9.2 | 5.1 | 40.4 ± 18.3
O=C(O)CC[C@H](NC(=O)N[C@@H](CCCCNC(=O)CCCCCNC(=O)CCc1ccc(O)c(CN(CCN(CC(=O)O)Cc2cc(CCC(=O)NCC(=O)O)ccc2O)CC(=O)O)c1)C(=O)O)C(=O)O [Compound 1c, (3S,7S)-22-(3-(((Carboxymethyl)(2-((carboxymethyl)(5-(3-((carboxymethyl)amino)-3-oxopropyl)-2-hydroxybenzyl)amino)ethyl)amino)methyl)-4-hydroxyphenyl)-5,13,20-trioxo-4,6,12,19-tetraazadocosane-1,3,7-tricarboxylic acid] | 11.8 | 13.4 | 1.6 | 25.6 ± 9.4
